# Measured values: PubChem BioAssay (NCI)
#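 In this assay, cells in 96-well plates receive the compound at five concentrations for 48 hours. Endpoints are linearly interpolated between the surrounding concentrations. TGI: total growth inhibition.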
# What was measured:
# Assay in all cases: NCI-60 cell line screen, 48 h
# HCT-116 colon = test system: HCT-116 colon
# NCI-H460 lung = test system: NCI-H460 lung
# SK-MEL-28 melanoma = test system: SK-MEL-28 melanoma
# TK-10 renal = test system: TK-10 renal
# MOLT-4 leukemia = test system: MOLT-4 leukemia
# HCT-15 colon = test system: HCT-15 colon
# MDA-N = test system: MDA-N
# DU-145 prostate = test system: DU-145 prostate
# NCI-H23 lung = test system: NCI-H23 lung
# SW-620 colon = test system: SW-620 colon
# OVCAR-3 ovarian = test system: OVCAR-3 ovarian
# IGROV1 ovarian = test system: IGROV1 ovarian
# KM12 colon = test system: KM12 colon
# MALME-3M melanoma = test system: MALME-3M melanoma
# HT29 colon = test system: HT29 colon
# 786-0 renal = test system: 786-0 renal
# SF-539 CNS = test system: SF-539 CNS
# UO-31 renal = test system: UO-31 renal
# MDA-MB-231 breast = test system: MDA-MB-231 breast
# OVCAR-5 ovarian = test system: OVCAR-5 ovarian
# CCRF-CEM leukemia = test system: CCRF-CEM leukemia
# HS 578T breast = test system: HS 578T breast
# SN12C renal = test system: SN12C renal
# BT-549 breast = test system: BT-549 breast
# SK-MEL-5 melanoma = test system: SK-MEL-5 melanoma
# M14 melanoma = test system: M14 melanoma
# SF-268 CNS = test system: SF-268 CNS
# K-562 leukemia = test system: K-562 leukemia
# HL-60(TB) leukemia = test system: HL-60(TB) leukemia
# RXF 393 renal = test system: RXF 393 renal
# NCI/ADR-RES ovarian = test system: NCI/ADR-RES ovarian
# A549 NSCLC = test system: A549 NSCLC
# ACHN renal = test system: ACHN renal
# SK-MEL-2 melanoma = test system: SK-MEL-2 melanoma
# SF-295 CNS = test system: SF-295 CNS
# UACC-257 melanoma = test system: UACC-257 melanoma
# U251 CNS = test system: U251 CNS
# HOP-62 NSCLC = test system: HOP-62 NSCLC
# CAKI-1 renal = test system: CAKI-1 renal
# HOP-92 NSCLC = test system: HOP-92 NSCLC
# LOX IMVI melanoma = test system: LOX IMVI melanoma
# SNB-75 CNS = test system: SNB-75 CNS
# T-47D breast = test system: T-47D breast
# RPMI-8226 leukemia = test system: RPMI-8226 leukemia
# SK-OV-3 ovarian = test system: SK-OV-3 ovarian
# A498 renal = test system: A498 renal
# UACC-62 melanoma = test system: UACC-62 melanoma
# PC-3 prostate = test system: PC-3 prostate
# NCI-H522 lung = test system: NCI-H522 lung
# NCI-H226 lung = test system: NCI-H226 lung
# MDA-MB-435 = test system: MDA-MB-435
# MCF7 breast = test system: MCF7 breast
# OVCAR-8 ovarian = test system: OVCAR-8 ovarian
# OVCAR-4 ovarian = test system: OVCAR-4 ovarian
# COLO 205 colon = test system: COLO 205 colon
# SNB-19 CNS = test system: SNB-19 CNS
# EKVX NSCLC = test system: EKVX NSCLC
# SR leukemia = test system: SR leukemia
# HCC-2998 colon = test system: HCC-2998 colon
smiles,measurement,setting,value
NS(=O)(=O)c1cc(Br)c(N=Nc2ccc(O)c3ncccc23)c(Br)c1,TGI,HCT-116 colon,> 100 µM
same,TGI,NCI-H460 lung,> 100 µM
same,TGI,SK-MEL-28 melanoma,> 100 µM
same,TGI,TK-10 renal,> 100 µM
same,TGI,MOLT-4 leukemia,> 100 µM
same,TGI,HCT-15 colon,> 100 µM
same,TGI,MDA-N,> 100 µM
same,TGI,DU-145 prostate,> 100 µM
same,TGI,NCI-H23 lung,> 100 µM
same,TGI,SW-620 colon,> 100 µM
same,TGI,OVCAR-3 ovarian,> 100 µM
same,TGI,IGROV1 ovarian,> 100 µM
same,TGI,KM12 colon,> 100 µM
same,TGI,MALME-3M melanoma,79.6 µM
same,TGI,HT29 colon,> 100 µM
same,TGI,786-0 renal,> 100 µM
same,TGI,SF-539 CNS,> 100 µM
same,TGI,UO-31 renal,89.6 µM
same,TGI,MDA-MB-231 breast,> 100 µM
same,TGI,OVCAR-5 ovarian,> 100 µM
same,TGI,CCRF-CEM leukemia,6.74 µM
same,TGI,HS 578T breast,78.5 µM
same,TGI,SN12C renal,> 100 µM
same,TGI,BT-549 breast,> 100 µM
same,TGI,SK-MEL-5 melanoma,> 100 µM
same,TGI,M14 melanoma,76.8 µM
same,TGI,SF-268 CNS,> 100 µM
same,TGI,K-562 leukemia,> 100 µM
same,TGI,HL-60(TB) leukemia,29.4 µM
same,TGI,RXF 393 renal,> 100 µM
same,TGI,NCI/ADR-RES ovarian,65.5 µM
same,TGI,A549 NSCLC,60.7 µM
same,TGI,ACHN renal,43.9 µM
same,TGI,SK-MEL-2 melanoma,> 100 µM
same,TGI,SF-295 CNS,> 100 µM
same,TGI,UACC-257 melanoma,67.3 µM
same,TGI,U251 CNS,> 100 µM
same,TGI,HOP-62 NSCLC,> 100 µM
same,TGI,CAKI-1 renal,> 100 µM
same,TGI,HOP-92 NSCLC,> 100 µM
same,TGI,LOX IMVI melanoma,> 100 µM
same,TGI,SNB-75 CNS,73.7 µM
same,TGI,T-47D breast,98.8 µM
same,TGI,RPMI-8226 leukemia,> 100 µM
same,TGI,SK-OV-3 ovarian,> 100 µM
same,TGI,A498 renal,67.9 µM
same,TGI,UACC-62 melanoma,68.8 µM
same,TGI,PC-3 prostate,> 100 µM
same,TGI,NCI-H522 lung,> 100 µM
same,TGI,NCI-H226 lung,> 100 µM
same,TGI,MDA-MB-435,> 100 µM
same,TGI,MCF7 breast,38.5 µM
same,TGI,OVCAR-8 ovarian,> 100 µM
same,TGI,OVCAR-4 ovarian,> 100 µM
same,TGI,COLO 205 colon,> 100 µM
same,TGI,SNB-19 CNS,> 100 µM
same,TGI,EKVX NSCLC,> 100 µM
same,TGI,SR leukemia,> 100 µM
Cc1c(S(=O)(=O)c2ccccc2)c(N)n(CCN(C)C)c1C,TGI,HCT-116 colon,> 100 µM
same,TGI,NCI-H460 lung,> 100 µM
same,TGI,SK-MEL-28 melanoma,> 100 µM
same,TGI,TK-10 renal,> 100 µM
same,TGI,MOLT-4 leukemia,> 100 µM
same,TGI,HCT-15 colon,> 100 µM
same,TGI,MDA-N,> 100 µM
same,TGI,DU-145 prostate,> 100 µM
same,TGI,NCI-H23 lung,> 100 µM
same,TGI,SW-620 colon,> 100 µM
same,TGI,OVCAR-3 ovarian,> 100 µM
same,TGI,IGROV1 ovarian,> 100 µM
same,TGI,KM12 colon,> 100 µM
same,TGI,MALME-3M melanoma,> 100 µM
same,TGI,HT29 colon,> 100 µM
same,TGI,786-0 renal,> 100 µM
same,TGI,SF-539 CNS,> 100 µM
same,TGI,UO-31 renal,> 100 µM
same,TGI,MDA-MB-231 breast,> 100 µM
same,TGI,OVCAR-5 ovarian,> 100 µM
same,TGI,CCRF-CEM leukemia,> 100 µM
same,TGI,HS 578T breast,> 100 µM
same,TGI,SN12C renal,> 100 µM
same,TGI,BT-549 breast,> 100 µM
same,TGI,SK-MEL-5 melanoma,> 100 µM
same,TGI,M14 melanoma,> 100 µM
same,TGI,SF-268 CNS,> 100 µM
same,TGI,K-562 leukemia,> 100 µM
same,TGI,HL-60(TB) leukemia,> 100 µM
same,TGI,RXF 393 renal,> 100 µM
same,TGI,NCI/ADR-RES ovarian,> 100 µM
same,TGI,A549 NSCLC,> 100 µM
same,TGI,ACHN renal,> 100 µM
same,TGI,SK-MEL-2 melanoma,> 100 µM
same,TGI,SF-295 CNS,> 100 µM
same,TGI,UACC-257 melanoma,> 100 µM
same,TGI,U251 CNS,> 100 µM
same,TGI,CAKI-1 renal,> 100 µM
same,TGI,HOP-92 NSCLC,> 100 µM
same,TGI,SNB-75 CNS,> 100 µM
same,TGI,T-47D breast,> 100 µM
same,TGI,HCC-2998 colon,> 100 µM
same,TGI,RPMI-8226 leukemia,> 100 µM
same,TGI,SK-OV-3 ovarian,> 100 µM
same,TGI,A498 renal,> 100 µM
same,TGI,UACC-62 melanoma,> 100 µM
same,TGI,PC-3 prostate,> 100 µM
same,TGI,NCI-H522 lung,> 100 µM
same,TGI,NCI-H226 lung,> 100 µM
same,TGI,MDA-MB-435,> 100 µM
same,TGI,MCF7 breast,> 100 µM
same,TGI,OVCAR-8 ovarian,> 100 µM
same,TGI,OVCAR-4 ovarian,> 100 µM
same,TGI,COLO 205 colon,> 100 µM
same,TGI,SNB-19 CNS,> 100 µM
same,TGI,EKVX NSCLC,> 100 µM
same,TGI,SR leukemia,> 100 µM
